Source: US20220242843A1, “PROCESS FOR PREPARING A COUMARIN-CAGED FORSKOLIN DERIVATIVE, FORSKOLIN DERIVATIVE AND USE OF SAID FORSKOLIN DERIVATIVE” (Forschungszentrum Juelich GmbH, priority 2019, published 2022)

Key:
[1] = Photolysis of JCF 1 in MeOH under 368.8 nm irradiation, followed by mass spectrometry; assay type: physicochemical; conditions: 100 μM in MeOH; 368.8 nm±5 nm; approximately 12.5 mW/cm^2
Experimental: The photolysis of JCF 1 is carried out under controlled conditions in order to quantitatively detect the release of forskolin carbamate 10 as a function of the amount of light absorbed: 0.16 ml of a 100 μM solution of JCF 1 in MeOH is added to a quartz glass cuvette (width: 4 mm; depth (optical path): 10 mm->fill level 4 mm). The “Intensilight” light source (excitation lamp of a Nikon TI Eclipse fluorescence microscope) is used as the excitation source, the light of which is guided through a gel light guide (active diameter: 4 mm) and a narrowband bandpass filter (368.8 nm±5 nm) onto the liquid column in the cuvette. […]
The irradiated samples are then examined using mass spectrometry (mass spectrometer: MSQ Plus from ThermoScientific; ionization: ESI-interface with a cone voltage of 50 V, eluent: methanol, water, glacial acetic acid, /50, 50, 0.02/vol, vol, vol; flow rate 0.2 ml/min; direct injections of 20 μl of the respective irradiated samples via a Rheodyne injection valve (7725i)). The mass trace m/z 511 and the mass range m/z 807-811 are recorded. The integrals of the peaks of the chromatogram of the mass trace m/z 511 (see FIG. 10) are evaluated. With an exposure time of 320 seconds, no more signals can be detected in the mass range m/z 807-811 (starting compound), and therefore a complete conversion can be assumed after this time under the above-described conditions.

[2] = system: peripheral membrane adenylyl cyclases; experiment: Validation on eukaryotic cell line expressing CNG channel and GCaMP3.0: Ca2+-dependent fluorescence as readout of intracellular cAMP increase after UV exposure; assay type: cell-based; conditions: 100 μM IBMX
From the text: The substance JCF 1 described according to embodiments of the invention was validated on eukaryotic cell cultures in which the increase in the intracellular cAMP concentration, which results from the binding of the biologically active forskolin carbamate 10 (FIG. 9) to peripheral membrane adenylyl cyclases which are endogenously present in the cells, using a fluorescence-based sensitive detection process.^14 In this regard, a cell line was used in which a cyclic-nucleotide-gated (CNG) ion channel is constitutively expressed. These channels are typically expressed in olfactory sensory neurons of the olfactory epithelium and open when the intracellular cAMP concentration increases. […] The inflow of Ca^2+ can be detected with Ca^2+-sensitive dyes or genetically encoded Ca^2+ indicators, such as GCaMP sensors, in a fluorescence reader or with a fluorescence microscope. […] The Ca^2+-dependent change in the fluorescence change can be detected and quantified with the aforementioned processes.
Cells of the cell line described were seeded in 96-well multi-well plates (MWP) and increased to a density of approximately 25,000. […] The basal fluorescence in the wells of 96-well MWP was then measured with a fluorescence reader. […] The basal fluorescence in the wells was then measured again before the entire 96-well MWP plate was exposed to light using a UV lamp device (FIG. 11, FIG. 12). […]

exposure time after which no more signals of starting compound (m/z 807-811) can be detected; complete conversion assumed [1]: 320 s
SMILES: C=C[C@@]1(C)CC(=O)[C@]2(O)[C@@]3(C)[C@@H](O)CCC(C)(C)[C@@H]3[C@H](OC(=O)NCCN(C)C(=O)OCc3cc(=O)oc4cc(O)c(Br)cc34)[C@H](OC(C)=O)[C@@]2(C)O1 [JCF 1, (3R,4aR,5S,6S,6aS,10S,10aR,10bS)-6-(((2-((((6-bromo-7-hydroxy-2-oxo-2H-chromen-4-yl)methoxy)carbonyl)(methyl)amino)ethyl)carbamoyl)oxy)-10,10b-dihydroxy-3,4a,7,7,10a-pentamethyl-1-oxo-3-vinyldodecahydro-1H-benzo[f]chromen-5-yl acetate]
change in fluorescence relative to the values achieved by adding non-caged NKH 477 ([2]; 10 μM and 30 μM, after UV exposure): approximately 50%
Ca2+-dependent fluorescence emission after UV exposure (release of forskolin carbamate 10) ([2]; cells loaded with 10 μM and 30 μM for 30 min in the dark, UV lamp exposure): significant increase
